Activity calls are given as the source filed them. The calls are words filed in the database; no cut-off is given here.

As a reminder, the IC50 is the concentration that inhibits the measured activity by half.

The target in one experiment is Dipeptidyl peptidase 4 (Homo sapiens, UniProt P27487). The experiment is described as follows: Inhibition of human DPP-4 using H-Gly-Pro-para-Nitroanilide as substrate incubated for 20 mins prior to substrate addition measured after 30 mins by spectrophotometry.
Chain of Dipeptidyl peptidase 4 (P27487 whole entry): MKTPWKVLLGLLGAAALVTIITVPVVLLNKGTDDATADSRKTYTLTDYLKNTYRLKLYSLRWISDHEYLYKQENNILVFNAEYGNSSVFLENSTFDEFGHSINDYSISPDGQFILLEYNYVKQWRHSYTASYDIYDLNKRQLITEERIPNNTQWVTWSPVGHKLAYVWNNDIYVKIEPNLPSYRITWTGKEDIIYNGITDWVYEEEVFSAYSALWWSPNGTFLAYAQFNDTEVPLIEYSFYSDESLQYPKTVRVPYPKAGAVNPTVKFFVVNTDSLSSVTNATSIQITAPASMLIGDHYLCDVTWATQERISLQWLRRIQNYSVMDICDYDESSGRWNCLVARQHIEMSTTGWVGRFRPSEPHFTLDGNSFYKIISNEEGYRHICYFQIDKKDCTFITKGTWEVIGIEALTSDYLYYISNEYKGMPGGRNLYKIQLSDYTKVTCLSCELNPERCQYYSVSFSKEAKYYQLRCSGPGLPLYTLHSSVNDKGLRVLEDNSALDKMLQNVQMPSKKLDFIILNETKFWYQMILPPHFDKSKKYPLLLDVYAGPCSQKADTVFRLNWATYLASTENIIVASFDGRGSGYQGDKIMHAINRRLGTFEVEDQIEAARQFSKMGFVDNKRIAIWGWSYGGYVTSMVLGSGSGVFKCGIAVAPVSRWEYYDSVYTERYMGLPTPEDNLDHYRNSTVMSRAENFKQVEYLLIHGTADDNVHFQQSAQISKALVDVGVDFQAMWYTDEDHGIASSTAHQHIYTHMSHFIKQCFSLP
Another experiment has as its system Rattus norvegicus. The experiment is described as follows: Suppression of blood glucose level in Wistar rat at 30 mg/kg, po measured 30 to 120 mins post dextrose challenge by oral glucose tolerance test. The format is functional, organism-based. On the set-up: dose 30 mg/kg.

In the case of `Cn1c(=O)c(C(C)(NN)Nc2ccccc2)c(O)c2ccccc21` (stereo not drawn), the IC50 at Dipeptidyl peptidase 4 (read-out: IC50) was 0.73 µM. Also, the outcome in the experiment with Rattus norvegicus was Active.

As to `CN(C)c1ccc(C(N)CC(=O)c2c(O)c3ccccc3n(C)c2=O)cc1` (stereo not drawn), the 50% inhibitory concentration (IC50) result against Dipeptidyl peptidase 4 is given as “ND(Insoluble)”.

Consider “2,2-diphenylethanaminium tetrachloroaurate”, for which the outcome with Rattus norvegicus was Active.

As for `N=CC(C(=O)c1ccccc1)c1ccccc1` (stereo not drawn), the IC50 on Dipeptidyl peptidase 4 (read-out: IC50) is above 100 µM.

`CCn1c(=O)c(C(C)(NN)Nc2ccc(C)cc2)c(O)c2ccccc21` (stereo not drawn): at Dipeptidyl peptidase 4 (read-out: IC50), the concentration for half-maximal inhibition (IC50) was determined as 2.95 µM. For the same compound, in the experiment with Rattus norvegicus, the result was Active.

With `Cc1ccc(=N)n(Cc2cccc(F)c2)c1`, the half-inhibitory concentration (IC50) at Dipeptidyl peptidase 4 (read-out: IC50) was 34.6 µM.
